Like-named read-outs stand apart in the source and are kept apart here.
What was measured:
NBD1 = target: T1, NBD1 (Homo sapiens, UniProt P13569); test: Aggregation analysis using differential static light scattering (DSLS), thermal stability of NBD1 (ΔTagg); assay type: binding; settings: ΔTagg versus DMSO control, NBD1 0.2 mg/ml
T1 construct: Purified recombinant NBD1 was produced using previously described methods; made in house
Method in brief: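 Read-out is ΔTagg: the aggregation temperature, taken at the inflection of the light-scattering curve, less the average of DMSO control wells. Recombinant NBD1 (0.2 mg/ml, pH7.6 buffer containing 2 mM ATP) with test compound was heated at 1° C. per minute up to 70° C.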

CFTR = target: T2, CFTR (Homo sapiens, UniProt P13569, DEL508-508); test: TECC24 AUC fold over DMSO @10 μM, CFTR-mediated transepithelial chloride transport in CF-HBE cells; assay type: cell-based; settings: test agent AUC divided by DMSO vehicle AUC, primary CF-HBE cells, ΔF508 homozygous donor, 48 hours incubation
T2 construct: Primary human bronchial epithelial cells from a ΔF508 homozygous CF donor; host or cells: primary human bronchial epithelial cells (CF-HBE), ΔF508 homozygous donor
T2 sequence (P13569 with tags, fused parts or gaps DEL508-508): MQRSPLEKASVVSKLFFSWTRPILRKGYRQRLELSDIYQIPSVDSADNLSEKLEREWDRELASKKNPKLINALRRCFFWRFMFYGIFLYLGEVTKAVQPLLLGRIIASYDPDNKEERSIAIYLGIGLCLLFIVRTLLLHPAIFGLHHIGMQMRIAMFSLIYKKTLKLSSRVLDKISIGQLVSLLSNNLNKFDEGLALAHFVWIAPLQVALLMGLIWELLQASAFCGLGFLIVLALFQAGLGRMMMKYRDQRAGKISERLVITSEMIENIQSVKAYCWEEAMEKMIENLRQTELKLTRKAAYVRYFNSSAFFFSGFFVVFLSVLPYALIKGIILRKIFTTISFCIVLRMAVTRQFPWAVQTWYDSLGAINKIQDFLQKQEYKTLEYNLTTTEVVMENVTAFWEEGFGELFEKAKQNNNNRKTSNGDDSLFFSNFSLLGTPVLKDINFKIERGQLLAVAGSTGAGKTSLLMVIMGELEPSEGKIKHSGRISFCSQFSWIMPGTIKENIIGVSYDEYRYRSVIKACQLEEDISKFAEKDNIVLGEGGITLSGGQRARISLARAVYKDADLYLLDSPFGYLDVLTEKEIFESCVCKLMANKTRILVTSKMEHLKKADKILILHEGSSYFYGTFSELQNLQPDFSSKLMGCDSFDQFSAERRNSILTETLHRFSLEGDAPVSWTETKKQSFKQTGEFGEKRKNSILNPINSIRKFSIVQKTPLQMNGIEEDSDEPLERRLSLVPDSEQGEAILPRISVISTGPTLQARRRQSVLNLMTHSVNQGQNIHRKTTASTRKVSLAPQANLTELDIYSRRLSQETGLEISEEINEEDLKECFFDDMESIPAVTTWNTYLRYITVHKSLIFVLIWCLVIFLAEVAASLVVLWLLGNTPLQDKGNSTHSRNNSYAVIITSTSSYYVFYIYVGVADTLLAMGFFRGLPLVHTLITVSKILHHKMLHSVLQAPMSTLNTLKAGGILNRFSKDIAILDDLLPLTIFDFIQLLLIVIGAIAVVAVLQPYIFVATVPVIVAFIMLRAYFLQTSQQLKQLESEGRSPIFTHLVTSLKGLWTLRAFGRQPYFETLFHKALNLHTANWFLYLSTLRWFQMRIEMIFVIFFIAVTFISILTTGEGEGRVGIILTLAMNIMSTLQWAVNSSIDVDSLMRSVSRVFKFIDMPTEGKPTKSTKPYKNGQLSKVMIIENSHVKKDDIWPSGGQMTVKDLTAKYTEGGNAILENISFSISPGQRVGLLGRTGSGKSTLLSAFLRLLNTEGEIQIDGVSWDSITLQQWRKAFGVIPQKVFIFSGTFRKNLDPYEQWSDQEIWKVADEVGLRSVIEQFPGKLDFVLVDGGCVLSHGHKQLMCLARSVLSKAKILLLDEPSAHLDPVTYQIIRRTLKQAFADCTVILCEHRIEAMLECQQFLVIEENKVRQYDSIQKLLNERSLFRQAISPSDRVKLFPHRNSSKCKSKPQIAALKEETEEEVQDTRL
Method in brief: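 Value is ratio of test-agent to DMSO AUC of equivalent transepithelial Cl− current, integrated from forskolin (10 μM) stimulation to CFTR inhibitor-172 (20 μM) block, with benzamil 10 μM present. CF-HBE (ΔF508/ΔF508) cultures had 48 h compound exposure at 10 μM, 36.5° C before recording.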

T1 sequence (P13569 423-646 limits assumed): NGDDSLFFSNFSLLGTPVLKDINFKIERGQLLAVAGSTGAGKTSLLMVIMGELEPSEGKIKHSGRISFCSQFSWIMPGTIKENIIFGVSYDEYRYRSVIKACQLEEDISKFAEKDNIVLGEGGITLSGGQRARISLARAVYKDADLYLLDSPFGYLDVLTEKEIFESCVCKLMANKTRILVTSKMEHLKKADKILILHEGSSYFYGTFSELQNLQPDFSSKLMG

C=CS(=O)(=O)CC(C)(C)CCC[C@](C)(c1cccc(C[C@H](C)C(=O)OC)c1)c1nc(-c2cc(Oc3cc4cc[nH]c4c(F)c3F)ccc2F)n(C)n1 gave a ring closure, isolated yield (the molecule shown is the open-chain precursor, cc_pd bond, 20-membered ring, Pd(OAc)2/Cu(OAc)2, DMF/DMSO 9:1, 1.36 mM, 70.0 °C) of 20%.
CCOC(=O)CCc1cccc(C2CCCC(C)(C)CSCCc3c(c(F)cc4[nH]ccc34)Oc3ccc(F)c(c3)-c3nn2cc3C#N)c1 (centres unmarked) showed a ring closure, isolated yield (from CCOC(=O)CCc1cccc(C(O)CCCC(C)(C)CSCCc2c(Oc3ccc(F)c(-c4n[nH]cc4C#N)c3)c(F)cc3[nH]ccc23)c1, other bond, 18-membered ring, cyanomethylenetributylphosphorane, 1,4-dioxane, 40.9 mM, 150.0 °C, 0.67 h) of 46%.
For COC(=O)/C1=C\c2c(c(F)cc3[nH]ccc23)Oc2cccc(c2)-c2ccn(n2)C(c2cccc(Br)c2)CCCC(C)(C)CS1(=O)=O (centres unmarked), the ring closure, isolated yield (from COC(=O)CS(=O)(=O)CC(C)(C)CCCC(c1cccc(Br)c1)n1ccc(-c2cccc(Oc3c(F)cc4[nH]ccc4c3C=O)c2)n1, other bond, 18-membered ring, piperidine/rest truncated, toluene, 3.5 mM, 100.0 °C) was 43%.
Work on COC(=O)[C@@H](C)Cc1cccc([C@@]2(C)CCCC(C)(C)CS(=O)(=O)/C=C/c3c(c(F)c(F)c4[nH]ccc34)Sc3ccc(F)c(c3)-c3nc2nn3C)c1 yielded a ring closure, isolated yield (from C=CS(=O)(=O)CC(C)(C)CCC[C@](C)(c1cccc(C[C@H](C)C(=O)OC)c1)c1nc(-c2cc(Sc3c(F)c(F)c4[nH]ccc4c3Br)ccc2F)n(C)n1, cc_pd bond, 18-membered ring, Pd(PtBu3)2/Et3N, toluene, 9.7 mM, 120.0 °C, 4.0 h) of 80%.
COC(=O)[C@@H](C)Cc1cccc([C@@]2(C)CCCC(C)(C)CS(=O)(=O)/C=C/c3c(c(F)cc4[nH]ccc34)Sc3ccc(F)c(c3)-c3nc2nn3C)c1 showed a ring closure, isolated yield (from C=CS(=O)(=O)CC(C)(C)CCC[C@](C)(c1cccc(C[C@H](C)C(=O)OC)c1)c1nc(-c2cc(Sc3c(F)cc4[nH]ccc4c3Br)ccc2F)n(C)n1, cc_pd bond, 18-membered ring, Pd(PtBu3)2/Et3N, toluene, 25.9 mM, 120.0 °C, 2.5 h) of 69%.
COC(=O)[C@H](C)Cc1cccc(C2(C)CCCC(C)(C)CS(=O)(=O)/C=C/c3c(c(F)cc4c3ccn4S(=O)(=O)c3ccc(C)cc3)Oc3ccc(F)c(c3)-c3ccn2n3)c1 (some centres unmarked) showed a ring closure, isolated yield (cc_pd bond, 18-membered ring, Pd(PtBu3)2/Et3N, toluene, 0.65 mM, 100.0 °C) of 11%.
Work on COC(=O)[C@H](C)Cc1cccc(C2(C)CCCC(C)(C)CS(=O)(=O)C=Cc3c(c(F)cc4[nH]ccc34)Oc3ccc(F)c(c3)-c3nc2nn3C)c1 (some centres unmarked) yielded a ring closure, isolated yield (from C=CS(=O)(=O)CC(C)(C)CCCC(C)(c1cccc(C[C@@H](C)C(=O)OC)c1)c1nc(-c2cc(Oc3c(F)cc4[nH]ccc4c3Br)ccc2F)n(C)n1, cc_pd bond, 18-membered ring, Pd(PtBu3)2/second reagent truncated, toluene, 8.15 mM, 2.0 h) of 48%.
COC(=O)[C@H](C)Cc1cccc([C@@]2(C)CCCC(C)(C)CS(=O)(=O)/C=C/c3c(c(F)c(F)c4[nH]ccc34)Oc3ccc(F)c(c3)-c3nc2nn3C)c1 gave a ring closure, isolated yield (from C=CS(=O)(=O)CC(C)(C)CCC[C@](C)(c1cccc(C[C@@H](C)C(=O)OC)c1)c1nc(-c2cc(Oc3c(F)c(F)c4[nH]ccc4c3Br)ccc2F)n(C)n1, cc_pd bond, 18-membered ring, Pd(PtBu3)2/Et3N, toluene, 10.8 mM, 120.0 °C, 3.5 h) of 68%.
In the case of COC(=O)[C@H](C)Cc1cccc([C@@]2(C)CCCC(C)(C)CS(=O)(=O)/C=C/c3c(c(F)c(F)c4[nH]ccc34)Sc3ccnc(c3)-c3nc2nn3C)c1, the ring closure, isolated yield (cc_pd bond, 18-membered ring, Pd(PtBu3)2/Et3N, toluene, 21.3 mM, 120.0 °C) is reported as 56%.
COC(=O)[C@H](C)Cc1cccc([C@@]2(C)CCCC(C)(C)CS(=O)(=O)C=Cc3c(c(F)cc4[nH]ccc34)Oc3ccnc(c3)-c3nc2nn3C)c1 gave a ring closure, isolated yield (from C=CS(=O)(=O)CC(C)(C)CCC[C@](C)(c1cccc(C[C@@H](C)C(=O)OC)c1)c1nc(-c2cc(Oc3c(F)cc4[nH]ccc4c3Br)ccn2)n(C)n1, cc_pd bond, 18-membered ring, Pd(PtBu3)2/Et3N, toluene, 2.74 mM, 120.0 °C, 4.0 h) of 64%.
For Cn1nc2nc1-c1cc(ccc1F)Oc1c(F)cc3c(ccn3COCc3ccccc3)c1/C=C/S(=O)(=O)CCCCOC2c1cccc(CCCO)c1 (centres unmarked), the ring closure, isolated yield (from Cn1nc(C(OCCCCS(C)(=O)=O)c2cccc(CCCO)c2)nc1-c1cc(Oc2c(F)cc3c(ccn3COCc3ccccc3)c2C=O)ccc1F, other bond, 18-membered ring, NaH, DMF, 19.4 mM) was 26%.
Cn1nc2nc1-c1cc(ccc1F)Oc1c(F)cc3c(ccn3S(=O)(=O)c3ccccc3)c1Cn1cc(cn1)C(C)(C)CSCCC2(C)c1cccc(Br)c1 (centres unmarked) showed a ring closure, isolated yield (from Cn1nc(C(C)(CCSCC(C)(C)c2cn[nH]c2)c2cccc(Br)c2)nc1-c1cc(Oc2c(F)cc3c(ccn3S(=O)(=O)c3ccccc3)c2CO)ccc1F, other bond, 19-membered ring, cyanomethylenetributylphosphorane, toluene, 14.0 mM, 110.0 °C, 4.0 h) of 37%.
O=Cc1c(Oc2ccc(F)c(-c3ncc(C(CCCCCCS(=O)(=O)CC(=O)O)c4cccc(I)c4)[nH]3)c2)c(F)cc2[nH]ccc12 (centres unmarked) gave a ring closure, isolated yield (the molecule shown is the open-chain precursor, other bond, 19-membered ring, piperidine/AcOH, toluene, 2.7 mM, 100.0 °C) of 10%.
Molecule [2H]C([2H])([2H])n1nc2nc1-c1cc(ccc1F)Oc1c(F)cc3[nH]ccc3c1C=C(C(=O)OCC)S(=O)(=O)CCCCCC2(C)c1cccc(OCC(=O)OCC)c1 (centres unmarked) has a ring closure, isolated yield (from [2H]C([2H])([2H])n1nc(C(C)(CCCC(C)(C)CS(=O)(=O)CC(=O)OCC)c2cccc(OCC(=O)OCC)c2)nc1-c1cc(Oc2c(F)cc3[nH]ccc3c2C=O)ccc1F, other bond, 18-membered ring, piperidine/AcOH, toluene, 2.6 mM, 110.0 °C) of 52%.
In the case of Cn1nc2nc1-c1cc(ccn1)Oc1c(F)cc3[nH]ccc3c1CCS(=O)(=O)CC(C)(C)CCC[C@]2(C)c1cccc(CC(C)(C)C(=O)O)c1 [Compound 291, 3-[3-[(6R)-22-fluoro-3,6,10,10-tetramethyl-12,12-dioxo-24-oxa-12λ6-thia-3,4,19,28,30-pentazapentacyclo[23.3.1.12,5.015,23.016,20]triaconta-1(29),2(30),4,15,17,20,22,25,27-nonaen-6-yl]phenyl]-2,2-dimethyl-propanoic Acid], the “DSLS 3D (100 μM ΔT)” value (NBD1) is reported as “C (a value greater than 10 °C and less than or equal to 25 °C is marked “C”)” and the “TECC (AUC, 10 μM)” value (CFTR) is reported as “C (a value between 20 and 80 is marked “C”)”.
For C[C@@H](Cc1cccc([C@@]2(C)CCCC(C)(C)CS(=O)(=O)CCc3c(c(F)cc4[nH]ccc34)Sc3cccc(c3)-c3nc2co3)c1)C(=O)O [Compound 293, (2S)-3-[3-[(6R)-22-fluoro-6,10,10-trimethyl-12,12-dioxo-3-oxa-12λ6,24-dithia-19,30-diazapentacyclo[23.3.1.12,5.015,23.016,20]triaconta-1(29),2(30),4,15,17,20,22,25,27-nonaen-6-yl]phenyl]-2-methyl-propanoic Acid], the “DSLS 3D (100 μM ΔT)” value (NBD1) was “C (a value greater than 10 °C and less than or equal to 25 °C is marked “C”)” and the “TECC (AUC, 10 μM)” value (CFTR) was “B (a value between 12-20 is marked “B”)”.
In the case of C[C@@H](Cc1cccc([C@@]2(C)CCCC(C)(C)CS(=O)(=O)CCc3c(c(F)cc4[nH]ccc34)[S+]([O-])c3cccc(c3)-c3nc2co3)c1)C(=O)O (stereo partly drawn) [Compound 294, (2S)-3-[3-[(6R)-22-fluoro-6,10,10-trimethyl-12,12,24-trioxo-3-oxa-12λ6,24λ4-dithia-19,30-diazapentacyclo[23.3.1.12,5.015,23.016,20]triaconta-1(29),2(30),4,15,17,20,22,25,27-nonaen-6-yl]phenyl]-2-methyl-propanoic Acid], the “DSLS 3D (100 μM ΔT)” value (NBD1) is reported as “C (a value greater than 10 °C and less than or equal to 25 °C is marked “C”)” and the “TECC (AUC, 10 μM)” value (CFTR) is reported as “A (a TECC value less than 12 is marked “A”)”.
For Cn1nc2nc1-c1cc(ccc1F)Oc1c(F)cc3[nH]ccc3c1CCS(=O)(=O)CCCCOC2c1cccc(CCCO)c1 (centres unmarked) [Compound 296, 3-[3-(22,28-Difluoro-3-methyl-12,12-dioxo-7,24-dioxa-12lambda6-thia-3,4,19,30-tetrazapentacyclo[23.3.1.^12,5.0^15,23.0^16,20]triaconta-1(29),2(30),4,15(23),16(20),17,21,25,27-nonaen-6-yl)phenyl]propan-1-ol], the “DSLS 3D (100 μM ΔT)” value (NBD1) was “A (an ΔTagg value less than or equal to 5 °C is marked “A”)” and the “TECC (AUC, 10 μM)” value (CFTR) was “A (a TECC value less than 12 is marked “A”)”.
For Cn1nc2nc1-c1cc(ccc1F)Oc1c(F)cc3[nH]ccc3c1CCS(=O)(=O)CCCCOC2c1cccc(CCC(=O)O)c1 (centres unmarked) [Compound 297, 3-[3-(22,28-Difluoro-3-methyl-12,12-dioxo-7,24-dioxa-12λ6-thia-3,4,19,30-tetrazapentacyclo[23.3.1.12,5.015,23.016,20]triaconta-1(29),2(30),4,15(23),16(20),17,21,25,27-nonaen-6-yl)phenyl]propanoic Acid], the “DSLS 3D (100 μM ΔT)” value (NBD1) was “B (a value above 5 °C and less than or equal to 10 °C is marked “B”)” and the “TECC (AUC, 10 μM)” value (CFTR) was “A (a TECC value less than 12 is marked “A”)”.
“Diastereomer 1 of methyl 3-methoxy-2-(3-((R,1^4Z,5E)-2^6,4^6,4^7-trifluoro-1^1,9,9,13-tetramethyl-4^1-(methylsulfonyl)-7,7-dioxido-1^1H,4^1H-3,7-dithia-4(5,4)-indola-1(5,3)-triazola-2(1,3)-benzenacyclotridecaphan-5-en-13-yl)benzyl)propanoate” gave a ring closure, isolated yield (cc_pd bond, 18-membered ring, chloro[(tBu3P)(2-aminobiphenyl-2-yl)Pd(II)]/tBu3P-HBF4/Cy2NMe, toluene, 16.8 mM, 120.0 °C) of 68%.
In the case of “methyl (2R)-3-[3-[(14E)-23,29-difluoro-7,11,11-trimethyl-13,13-dioxo-20-(p-tolylsulfonyl)-25-oxa-13 6-thia-5,6,20-triazapentacyclo[24.3.1.02,6.016,24.017,21]triaconta-1(30),2,4,14,16,18,21,23,26,28-decaen-7-yl]phenyl]-2-methyl-propanoate”, the ring closure, isolated yield (cc_pd bond, 17-membered ring, Pd(PtBu3)2/Et3N, toluene, 0.65 mM, 100.0 °C) is reported as 23%.
